Assays:
P388 [1] = test: Antitumor activity against mouse P388 cells allografted in mouse assessed as increase in survival rate at 120 mg/kg relative to control; format: functional
Mus musculus [2] = test: Toxicity in mouse allografted with mouse P388 cells at 120 mg/kg; format: organism-based; design: dose 120 mg/kg; conditions: in vivo
P388 [3] = test: Antitumor activity against mouse P388 cells allografted in mouse assessed as increase in survival rate at 225 mg/kg relative to control; format: functional
Mus musculus [4] = test: Toxicity in mouse allografted with mouse P388 cells at 225 mg/kg; format: organism-based; design: dose 225 mg/kg; conditions: in vivo

Compound	T/C (P388 [1])	Activity (Mus musculus [2])	T/C (P388 [3])	Activity (Mus musculus [4])
NC(=O)Nc1cc(NC(N)=O)cc(N(CCCl)CCCl)c1	194%	Non-toxic	–	–
CC(=O)Nc1cc(NC(C)=O)cc(N(CCCl)CCCl)c1	–	–	196%	Non-toxic

Reference: ChEMBL document CHEMBL3271974, “Synthesis of the antileukemic compound N,N(11)-[5-[bis(2-chloroethyl)amino]-1, 3-phenylene]bisurea” (J Med Chem, 1976)
